Assay results: US20250171495A1, “MUTLI-TARGETED SERINE PROTEASE INHIBITORS FOR TREATMENT OF CANCER AND VIRAL INFECTION” (Washington University, priority 2023, published 2025)

Experiments:
Type in all cases: biochemical
TMPRSS2 = TMPRSS2 (Homo sapiens, UniProt O15393); assay: PS-SCL / HyCoSuL substrate specificity screening, TMPRSS2; conditions: for P2 Position Substrate Activity for TMPRSS2 (percent substrate cleavage/proteolysis): residue fixed at P2 position of substrate library, best recognized amino acid set to 100%; for P3 Position Various Amino Acids Substrate Activity, TMPRSS2 (percent substrate cleavage/proteolysis): residue fixed at P3 position of substrate library; for P4 Position Various Amino Acids Substrate Activity, TMPRSS2 (percent substrate proteolysis/cleavage): residue fixed at P4 position of substrate library
matriptase = biological target: T1, matriptase (Homo sapiens, UniProt Q9Y5Y6); assay: HyCoSuL P4-P2 substrate specificity screening, matriptase; conditions: for P2 Position Substrate Activity for matriptase (percent substrate cleavage/proteolysis): residue fixed at P2 position, P1-Arg HyCoSuL, 100 μM, best recognized amino acid set to 100%; for P3 Position Various Amino Acids Substrate Activity, matriptase (percent substrate cleavage/proteolysis): residue fixed at P3 position of substrate library; for P4 Position Various Amino Acids Substrate Activity, matriptase (percent substrate proteolysis/cleavage): residue fixed at P4 position of substrate library
T1 sequence (Q9Y5Y6 1-855): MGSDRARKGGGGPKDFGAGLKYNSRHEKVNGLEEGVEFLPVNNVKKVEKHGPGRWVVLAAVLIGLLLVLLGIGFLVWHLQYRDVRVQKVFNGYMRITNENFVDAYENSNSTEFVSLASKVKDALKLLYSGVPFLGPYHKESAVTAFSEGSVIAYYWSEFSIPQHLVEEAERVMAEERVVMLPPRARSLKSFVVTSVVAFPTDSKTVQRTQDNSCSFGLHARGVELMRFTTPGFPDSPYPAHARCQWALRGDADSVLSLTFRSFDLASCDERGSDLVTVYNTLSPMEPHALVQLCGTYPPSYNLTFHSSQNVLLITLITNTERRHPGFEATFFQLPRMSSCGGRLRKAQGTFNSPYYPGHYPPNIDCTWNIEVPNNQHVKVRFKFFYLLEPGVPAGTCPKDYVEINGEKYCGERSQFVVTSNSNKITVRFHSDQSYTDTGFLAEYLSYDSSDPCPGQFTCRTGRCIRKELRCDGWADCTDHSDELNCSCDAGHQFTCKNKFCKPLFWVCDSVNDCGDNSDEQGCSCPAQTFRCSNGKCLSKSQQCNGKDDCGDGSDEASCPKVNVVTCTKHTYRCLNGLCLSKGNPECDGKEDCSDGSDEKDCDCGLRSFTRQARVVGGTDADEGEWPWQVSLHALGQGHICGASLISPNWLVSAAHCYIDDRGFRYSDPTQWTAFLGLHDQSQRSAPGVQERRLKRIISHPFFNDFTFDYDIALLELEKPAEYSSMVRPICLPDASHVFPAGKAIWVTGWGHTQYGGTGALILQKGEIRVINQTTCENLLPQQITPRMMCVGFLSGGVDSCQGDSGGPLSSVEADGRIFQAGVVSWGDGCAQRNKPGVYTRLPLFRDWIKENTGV

hepsin = biological target: T2, hepsin (Homo sapiens, UniProt P05981); assay: HyCoSuL P4-P2 substrate specificity screening, hepsin; conditions: for P2 Position Substrate Activity for hepsin (percent substrate cleavage/proteolysis): residue fixed at P2 position, P1-Arg HyCoSuL, 100 μM, best recognized amino acid set to 100%; for P3 Position Various Amino Acids Substrate Activity, hepsin (percent substrate cleavage/proteolysis): residue fixed at P3 position of substrate library; for P4 Position Various Amino Acids Substrate Activity, hepsin (percent substrate proteolysis/cleavage): residue fixed at P4 position of substrate library
T2 construct: purchased R&D Systems 4776-SE-010

HGFA = biological target: T3, HGFA (Homo sapiens, UniProt Q04756); assay: HyCoSuL P4-P2 substrate specificity screening, HGFA; conditions: for P2 Position Substrate Activity for HGFA (percent substrate cleavage/proteolysis): residue fixed at P2 position, P1-Arg HyCoSuL, 100 μM, best recognized amino acid set to 100%; for P3 Position Various Amino Acids Substrate Activity, HGFA (percent substrate cleavage/proteolysis): residue fixed at P3 position of substrate library; for P4 Position Various Amino Acids Substrate Activity, HGFA (percent substrate proteolysis/cleavage): residue fixed at P4 position of substrate library
T3 sequence (Q04756 373-655): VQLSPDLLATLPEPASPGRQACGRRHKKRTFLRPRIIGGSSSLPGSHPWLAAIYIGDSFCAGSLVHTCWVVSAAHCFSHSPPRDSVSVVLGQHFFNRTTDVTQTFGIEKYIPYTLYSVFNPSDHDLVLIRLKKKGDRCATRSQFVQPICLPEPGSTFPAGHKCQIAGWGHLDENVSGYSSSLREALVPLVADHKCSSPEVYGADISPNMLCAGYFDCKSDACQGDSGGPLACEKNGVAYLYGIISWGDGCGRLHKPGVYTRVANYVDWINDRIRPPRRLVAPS

Chain of TMPRSS2 (O15393 whole entry): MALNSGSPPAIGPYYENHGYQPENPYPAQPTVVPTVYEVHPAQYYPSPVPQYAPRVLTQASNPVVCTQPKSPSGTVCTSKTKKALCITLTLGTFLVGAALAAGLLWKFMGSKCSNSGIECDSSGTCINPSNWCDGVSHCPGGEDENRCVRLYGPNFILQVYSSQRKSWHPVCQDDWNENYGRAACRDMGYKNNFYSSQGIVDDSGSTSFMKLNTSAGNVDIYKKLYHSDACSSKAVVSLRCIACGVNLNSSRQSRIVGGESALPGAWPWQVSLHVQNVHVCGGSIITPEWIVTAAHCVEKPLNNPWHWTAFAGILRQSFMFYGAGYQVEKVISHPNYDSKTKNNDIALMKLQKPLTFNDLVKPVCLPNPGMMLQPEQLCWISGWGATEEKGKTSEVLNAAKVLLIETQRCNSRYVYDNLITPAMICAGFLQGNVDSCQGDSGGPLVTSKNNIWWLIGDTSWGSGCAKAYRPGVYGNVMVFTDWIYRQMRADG
T2 sequence (P05981 163-417 limits assumed): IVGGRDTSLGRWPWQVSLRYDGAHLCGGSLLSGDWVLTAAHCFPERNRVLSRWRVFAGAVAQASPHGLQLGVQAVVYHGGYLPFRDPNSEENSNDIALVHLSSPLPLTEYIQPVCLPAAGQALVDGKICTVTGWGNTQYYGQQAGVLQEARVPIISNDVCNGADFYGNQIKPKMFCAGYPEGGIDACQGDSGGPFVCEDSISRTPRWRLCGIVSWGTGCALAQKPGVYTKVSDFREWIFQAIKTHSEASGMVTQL
T2 sequence (P05981 1-162 partner limits assumed): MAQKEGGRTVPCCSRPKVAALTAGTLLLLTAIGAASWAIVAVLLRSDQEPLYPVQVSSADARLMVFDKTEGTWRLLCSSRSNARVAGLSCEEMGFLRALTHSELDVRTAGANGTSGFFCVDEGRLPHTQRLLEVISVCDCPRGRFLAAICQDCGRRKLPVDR

Substance | P2 Position Substrate Activity for TMPRSS2 (percent substrate cleavage/proteolysis) (TMPRSS2) | P3 Position Various Amino Acids Substrate Activity, TMPRSS2 (percent substrate cleavage/proteolysis) (TMPRSS2) | P4 Position Various Amino Acids Substrate Activity, TMPRSS2 (percent substrate proteolysis/cleavage) (TMPRSS2) | P2 Position Substrate Activity for matriptase (percent substrate cleavage/proteolysis) (matriptase) | P3 Position Various Amino Acids Substrate Activity, matriptase (percent substrate cleavage/proteolysis) (matriptase) | P4 Position Various Amino Acids Substrate Activity, matriptase (percent substrate proteolysis/cleavage) (matriptase) | P2 Position Substrate Activity for hepsin (percent substrate cleavage/proteolysis) (hepsin) | P3 Position Various Amino Acids Substrate Activity, hepsin (percent substrate cleavage/proteolysis) (hepsin) | P4 Position Various Amino Acids Substrate Activity, hepsin (percent substrate proteolysis/cleavage) (hepsin) | P2 Position Substrate Activity for HGFA (percent substrate cleavage/proteolysis) (HGFA) | P3 Position Various Amino Acids Substrate Activity, HGFA (percent substrate cleavage/proteolysis) (HGFA) | P4 Position Various Amino Acids Substrate Activity, HGFA (percent substrate proteolysis/cleavage) (HGFA)
D-Tyr | 0.00% | 4.49% | 33.78% | 0% | 6% | 7% | 0.00% | 29.94% | 12.66% | 0.00% | 17.32% | 10.09%
L-Trp | 33.05% | 22.96% | 24.62% | 32% | 11% | 9% | 6.00% | 0.00% | 6.82% | 4.04% | 17.50% | 8.78%
D-Glu | 0.00% | 12.50% | 23.68% | 0% | 2% | 1% | 0.00% | 34.55% | 2.98% | 0.00% | 3.61% | 2.62%
L-Asp | 9.72% | 25.70% | 7.77% | 1% | 2% | 1% | 0.33% | 3.89% | 0.22% | 1.21% | 2.81% | 1.90%
